Results from the METLIN SMRT retention time set (Domingo-Almenara et al. 2019).

Assay: gradient 5% acetonitrile 3 min, to 50% in 2 min, to 85% in 15 min, held 3 min, 100 µL/min
Settings: column: Zorbax Extend-C18 2.1 x 50 mm; eluents: water / acetonitrile, 0.1% formic acid
Procedure, shortened: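 Using water and acetonitrile that each contained 0.1% formic acid, mixtures of ~100 pure standards were separated at 100 μL/min on a Zorbax Extend-C18 column (2.1 × 50 mm, 1.8 μm). The HPLC fed a quadrupole time-of-flight mass spectrometer working in positive and negative ionization mode, with dead and dwell volumes of 40 μL and 900 μL. Data were acquired over 3 months. Retention time was read from computationally picked adduct peaks after manual inspection of each.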

Row | RP-LC retention time [s] | SMILES
1 | 1130 | Cc1ccc(-c2nc(C)cc(OCC(=O)Nc3c(C)cc(C)cc3C)n2)cc1
2 | 908 | Cc1cc2nn(CC(=O)Nc3ccc4c(c3)OCCO4)c(=O)n2c(Nc2ccccc2C)n1
3 | 683 | Cc1cccn2c(Nc3ccc4c(c3)OCCO4)c(-c3ccc(N4CCOCC4)cc3)nc12
4 | 797 | COc1ccc(-c2nc(C3CC(=O)N(c4ccc(OC)c(OC)c4)C3)no2)c(OC)c1 (stereo unspecified)
5 | 672 | COc1ccc(Br)c(C(=O)Nc2ccc3c(c2)C(=O)NCC3)c1
6 | 1170 | CCc1ccc(-c2noc(Cn3c(=O)n(Cc4cccc(OC)c4)c(=O)c4sccc43)n2)cc1
7 | 1070 | O=C1CC(c2noc(-c3ccc(F)c(Cl)c3)n2)CN1c1ccc(F)cc1 (stereo unspecified)
8 | 934 | Cc1cc(C)cc(Nc2nc(C)cc(=O)n2CC(=O)Nc2cccc(Br)c2)c1
9 | 881 | COc1cc(OC)cc(-c2noc(-c3nn(-c4cccc(F)c4)ccc3=O)n2)c1
10 | 1100 | COc1cccc(-c2nnc(Cc3nc(-c4ccc(Br)cc4)no3)o2)c1
11 | 960 | COC(=O)Cn1nc(-c2nc(-c3cccc(Cl)c3)no2)ccc1=O
12 | 942 | CCc1nc(OCC(=O)Nc2ccc(Cl)cc2C(F)(F)F)c2ccccc2n1
13 | 707 | CCOC(=O)CSc1nnc2n1CCN2c1ccc(OC)cc1
14 | 804 | Cc1ccccc1-c1noc(CN2N=NC3C(=O)N(c4ccc(F)c(F)c4)C(=O)C32)n1 (stereo unspecified)

Second part, the compound before the results:

Row | SMILES | RP-LC retention time [s]
15 | O=C1CC(CNS(=O)(=O)c2ccc3c(c2)OCCO3)CN1c1ccc(Cl)cc1 (stereo unspecified) | 788
16 | Cc1ccc(-c2[nH]ncc2CN2CC(F)(F)C[C@H]2CN2CCOCC2)cc1C | 654
17 | CC1Oc2ccc(NC(=O)C3CCCC3)cc2CN(Cc2ccccc2F)C1=O (stereo unspecified) | 864
18 | O=C(c1ccc(OCC2CCCN2C(=O)COc2ccc(F)cc2)cc1)N1CCCC1 (stereo unspecified) | 761
19 | CCn1c(=O)sc2cc(S(=O)(=O)N3CCC(C(=O)Nc4cccc5c4CCCC5)CC3)ccc21 | 1010
20 | c1ccc(-c2nc(C3CC3)no2)c(OC2CCNC2)c1 (stereo unspecified) | 588
21 | COc1ccc(CNC(=O)CN2C(=O)C3CCCCN3c3ccc(C(=O)N(C)C)cc32)c(OC)c1 (stereo unspecified) | 756
22 | O=C(Cn1c(=O)oc2cc(Cl)ccc21)N1CCN(c2ccccn2)CC1 | 630
23 | CCN(CC)CCNC(=O)CCc1nc2c(C)nn(-c3ccccc3)c2n(C)c1=O | 585
24 | O=c1ccc(N2CCCN(S(=O)(=O)c3ccc(Cl)cc3)CC2)nn1-c1ccccc1 | 868
25 | COc1ccc(C2C(C(=O)NCCCN3CCOCC3)CCC(=O)N2c2ccc(OC)cc2)cc1 (stereo unspecified) | 580
26 | CCCc1cc(N2CCN(C(=O)Cc3cccs3)CC2)nc2nnc(C)n12 | 620
27 | Cc1ccc2cccc(OC(=O)N3CCCCCC3)c2n1 | 789
28 | COc1cc(NC(=O)C2CCCN(c3nnc4ccc(Cl)cn34)C2)cc(OC)c1OC (stereo unspecified) | 734
29 | CC(=O)N1CCc2cc(CNS(=O)(=O)c3ccc(F)cc3)ccc21 | 738
30 | CNC(=O)[C@@H]1CN(C(=O)c2ccn(C)n2)C[C@H]1COC | 535
31 | Cc1ccc(CN2C[C@@H]3C(=O)N(C)C(=O)[C@@H]3C2)cc1C | 604
32 | O=S(=O)(c1ccc(F)cc1)N1CC(F)(F)C[C@H]1CN1CCc2ccccc2C1 | 738
33 | CCn1c(=O)cc(OCC(=O)NCCN(C)Cc2ccccc2)c2ccccc21 | 617
34 | COc1cc(OC)c(OC)cc1/C=C\c1ccnc2ccccc12 | 679
35 | Cn1ccc2c(cc(C(=O)NCc3ccc(N4CCOCC4)cc3)n2C)c1=O | 614
36 | CC(C)NC(=O)N1CCC(c2noc(-c3ccncc3)n2)C1 (stereo unspecified) | 626
